Source: patent publication US20030109552A1, “Use of insulin sensitisers for treating renal diseases” (SmithKline Beecham p.l.c., priority 1994, published 2003)

How the values were obtained:
Type in all cases: in vivo, rat
[1] = test system: obese Zucker fa/fa rats; assay: Renal histopathology in obese Zucker fa/fa rats, 3 months dietary administration; design: key to Chronic Nephropathy (histopathological severity, kidney): 0: None seen; ±: Minimal; +: Mild; ++: Moderate; +++: Marked
Procedure: Obese Zucker rats are known to develop chronic nephropathy in addition to hyperlipidaemia, hyperinsulinaemia and peripheral insulin resistance (Kasiske et al 1985).
5-[4-[2-(N-methyl-N-(2-pyridyl)amino)ethoxy]benzyl]thiazolidine-2,4-dione (herein after referred to as ‘test compound’) was administered to 2-3 month old obese Zucker fa/fa rats by dietary administration to provide a daily dose over a period of 3 months ranging from 2.0-7.0 μmole/kg body weight. A group of age-matched obese Zucker fa/fa rats were given the same diet without the addition of the test compound, as was a group of lean Fa/? rats. At the end of the study, all of the control Zucker fa/fa rats had chronic nephropathy which involved dilated tubules, atrophied or hyperplastic tubular epithelial cells, thickened tubular basement membranes, segmented glomeruli or global glomerulosclerosis.

[2] = test system: Zucker fatty (fa/fa) rats; assay: Systolic blood pressure (tail cuff) in Zucker fatty rats, 9 month study
Procedure: (§1) A second study was performed in Zucker rats over a period of 9 months to investigate the longitudinal effects of the drug on systolic blood pressure and various indices of renal function, two of which are exemplified here. In one arm of the study, the drug was given in the diet (50 μmole/kg of diet) from aged 6-7weeks in Zucker fatty (fa/fa) rats, whilst in a second arm of the study, drug treatment as above was delayed until proteinuria had become established after 4 months, indicative of structural damage already present in the kidneys. A third group of Zucker fatty rats and a further group of lean rats were given diet alone throughout the period of study.
(§2) After dosing with the test compound, at monthly intervals measurements were made of systolic blood pressure, urinary total protein and urinary N-acetyl β-D-glucosaminidase (NAG) activity.
Rats were enclosed in custom-built restrainers and placed on a shelf in a warming cabinet, whose temperature was controlled at approximately 30° C. An inflatable cuff with integral pulse sensor was attached to the tail of each rat. After warming for 20-30 min the tail cuff was inflated and deflated automatically and a measurement of systolic blood pressure made using an IITC Non-Invasive Blood Pressure Monitor. This cycle was repeated several times for each rat until stable values of blood pressure were obtained.

[3] = test system: Zucker fatty (fa/fa) rats; assay: Urinary total protein (Bio-Rad protein assay, 24 h urine) in Zucker fatty rats, 9 month study
Procedure: A second study was performed in Zucker rats over a period of 9 months to investigate the longitudinal effects of the drug on systolic blood pressure and various indices of renal function, two of which are exemplified here. […] A third group of Zucker fatty rats and a further group of lean rats were given diet alone throughout the period of study. After dosing with the test compound, at monthly intervals measurements were made of systolic blood pressure, urinary total protein and urinary N-acetyl β-D-glucosaminidase (NAG) activity. Twenty-four hour urine collections, made in metabolism cages, were aliquoted and frozen at −70° C. until required for assay. Urinary protein concentration was measured using the Bio-Rad protein assay as modified for use in a 96-well microtitre plate. The assay is a dye-binding assay based on the differential colour change of a dye in response to various concentrations of protein (Bradford, Anal. Biochem., 72, 248, 1976). After a period of incubation with Dye Reagent, diluted urine samples are read at an optical density of 595 nm using a Molecular Devices multiplate reader.

[4] = test system: Zucker fatty (fa/fa) rats; assay: Urinary N-acetyl β-D-glucosaminidase (NAG) activity in Zucker fatty rats, 9 month study
Procedure: as §1, §2
Twenty-four hour urine collections, made in metabolism cages, were aliquoted and frozen at −70° C. until required for assay.
NAG activity was assayed using a reagent kit on a Hitachi 717 analyser (both supplied by Boehringer Mannheim UK, Lewes). Enzyme activity was measured by monitoring the rate of chlorophenol (570 nm) released from the substrate chlorophenol red-β-D-glucosaminide.

[5] = Zucker fatty (fa/fa) rats treated from the age of 6-7 weeks for 9 months via the diet
[6] = drug treatment commenced after proteinuria had become established

CN(CCOc1ccc(CC2SC(=O)NC2=O)cc1)c1ccccn1 (stereo not drawn) [Test Compound, 5-[4-[2-(N-methyl-N-(2-pyridyl)amino)ethoxy]benzyl]thiazolidine-2,4-dione]
Chronic Nephropathy (histopathological severity, kidney) ([1]; individual fatty Zucker rats, test compound in diet 2.0-7.0 μmole/kg body weight daily): ++ | incidence and degree of chronic nephropathy compared to control Zucker fa/fa rats ([1]; obese Zucker fa/fa rats, diet, 2.0-7.0 μmole/kg daily): reduction in the incidence and degree of chronic nephropathy | hydronephrosis seen in treated rats ([1]; obese Zucker fa/fa rats, diet, 2.0-7.0 μmole/kg daily, controls 4/9): No hydronephrosis was seen | development of hypertension [2, 5]: prevented the development of hypertension | systolic blood pressure (further rise) [2, 6]: prevented from rising further | rate of development of proteinuria [3, 5]: markedly reduced | rate of increase in the urinary protein concentration [3, 6]: marked reduction of the rate of increase | elevation of urinary NAG activity [4, 5]: markedly reduced | urinary NAG activity (further rise) [4, 6]: prevented from rising further
